Measured values as given in patent US20250049812A1, “Compounds that Inhibit Necroptosis and Their Preparation Methods” (SHANGHAI INSTITUTE OF ORGANIC CHEMISTRY, CHINESE ACADEMY OF …, priority 2021, published 2025).

test system: Jurkat FADD (−/−) Cells; test: TNF-α induced necroptosis of Jurkat FADD-deficient cells (CellTiter-Glo cell survival); type: cell-based, human; details: Homo sapiens, Jurkat, 13 h
Summary of the method: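 Cells in RPMI 1640 with 10% FBS were pretreated for 1 h at 37 °C with compound (12-point threefold series from 25 μM, or 0.5 μM, in triplicate). They were then stimulated with TNFα added as a 5 ng/mL solution for 13 h. Survival was read by luminescence.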

| SMILES | IC50 |
| --- | --- |
| CN1C(=O)C(NC(=O)c2nnc(Cc3ccccc3)[nH]2)Cc2cn(CCO)c3cccc1c23 (racemic) [T-33, (±)-5-benzyl-N-(6-(2-hydroxyethyl)-1-methyl-2-oxo-2,3,4,6-tetrahydro-1H-azacyclo [4,3,2-cd]indol-3-yl)-4H-1,2,4-triazole-3-carboxamide] | 10 to 100 nM |
| COC(=O)C(=O)c1cn2c3c(cccc13)N(C)C(=O)[C@@H](NC(=O)c1nnc(Cc3ccccc3)[nH]1)C2 [T-92, Methyl(S)-2-(3-(5-benzyl-4H-1,2,4-triazole-3-carboxamide)-1-methyl-2-oxo-1,2,3,4-tetrahydro-[1,4]diazepine [3,2,1-hi]indol-7-yl)-2-oxoacetic Acid] | > 1000 nM |
| COC(=O)Cn1cc2c3c(cccc31)N(C)C(=O)C(NC(=O)c1nnc(Cc3ccccc3)[nH]1)C2 (racemic) [T-29, (±)-methyl2-(3-(5-benzyl-4H-1,2,4-triazole-3-carboxamide)-1-methyl-2-oxo-1,2,3,4-tetrahydro-6H-azacyclo [4,3,2-cd]indol-6-yl)acetate] | < 10 nM |

same assay, conditions: Homo sapiens; TNF-α induced necroptosis, Jurkat FADD-deficient cells, 13 hours, CellTiter-Glo; read-out: IC50

| SMILES | IC50 |
| --- | --- |
| CN1C(=O)[C@@H](NC(=O)c2nnc(Cc3ccccc3)[nH]2)Cn2cc(-c3cnc(Cl)n3C)c3cccc1c32 [T-126, (S)-5-benzyl-N-(7-(2-chloro-1-methyl-1H-imidazol-5-yl)-1-methyl-2-oxo-1,2,3,4-tetrahydro-1,4-diazepine [3,2,1-hi]indol-3-yl)-4H-1,2,4-triazole-3-carboxamide] | 10 to 100 nM |
| CN1C(=O)C(NC(=O)c2nnc(Cc3ccccc3)[nH]2)Cc2cn(CC#N)c3cccc1c23 (racemic) [T-25, (±)-5-benzyl-N-(6-(cyanomethyl)-1-methyl-2-oxo-2,3,4,6-tetrahydro-1H-azacyclo [4,3,2-cd]indol-3-yl)-4H-1,2,4-triazole-3-carboxamide] | < 10 nM |
| CN1C(=O)[C@@H](NC(=O)c2nnc(Cc3ccccc3)[nH]2)Cn2cc(-c3cnn(C4CC4)c3)c3cccc1c32 [T-121, (S)-5-benzyl-N-(7-(1-cyclopropyl-1H-pyrazol-4-yl)-1-methyl-2-oxo-1,2,3,4-tetrahydro-1,4-diazepino [3,2,1-hi]indol-3-yl)-4H-1,2,4-triazole-3-carboxamide] | 10 to 100 nM |
| CN1C(=O)C(NC(=O)c2nnc(Cc3ccccc3)[nH]2)Cc2cn(-c3ncccc3SC(F)(F)F)c3cccc1c23 (racemic) [T-111, (±)-5-benzyl-N-(1-methyl-2-oxo-6-(3-((trifluoromethyl)thio)pyridin-2-yl)-2,3,4,6-tetrahydro-1H-aza [4,3,2-cd]indol-3-yl)-4H-1,2,4-triazole-3-carboxamide] | < 10 nM |
| CN1C(=O)C(NC(=O)c2nnc(Cc3ccccc3)[nH]2)Cn2cc(-c3cnoc3)c3cccc1c32 (racemic) [T-88, (±)-5-benzyl-N-(7-(isoxazol-4-yl)-1-methyl-2-oxo-1,2,3,4-tetrahydro-[1,4]diazepine [3,2,1-hi]indol-3-yl)-4H-1,2,4-triazole-3-carboxamide] | 10 to 100 nM |
| CN1C(=O)C(NC(=O)c2ncc(Cc3ccccc3)o2)Cn2cc(-c3ccnn3C)c3cccc1c32 (racemic) [T-83, (±)-5-benzyl-N-(1-methyl-7-(1-methyl-1H-pyrazol-5-yl)-2-oxo-1,2,3,4-tetrahydro-[1,4]diazepino[3,2,1-hi]indol-3-yl)-oxazole-2-carboxamide] | < 10 nM |
| Cc1nn(C)cc1-c1cn2c3c(cccc13)N(C)C(=O)[C@@H](NC(=O)c1nnc(Cc3ccccc3)[nH]1)C2 [T-117, (S)-5-benzyl-N-(7-(1,3-dimethyl-1H-pyrazol-4-yl)-1-methyl-2-oxo-1,2,3,4-tetrahydro-1,4-diazepine [3,2,1-hi]indol-3-yl)-4H-1,2,4-triazole-3-carboxamide] | < 10 nM |
| CN1C(=O)C(NC(=O)c2nnc(Cc3ccccc3)[nH]2)Cc2cn(-c3ncccc3CO)c3cccc1c23 (racemic) [T-49, (±)-5-benzyl-N-(6-(3-(hydroxymethyl)pyridin-2-yl)-1-methyl-2-oxo-2,3,4,6-tetrahydro-1H-azacyclo [4,3,2-cd]indol-3-yl)-4H-1,2,4-triazole-3-carboxamide] | < 10 nM |
| CN1C(=O)C(NC(=O)c2nnc(Cc3ccccc3)[nH]2)Cc2cn(C3CC3)c3cccc1c23 (racemic) [T-23, (±)-5-benzyl-N-(6-cyclopropyl-1-methyl-2-oxo-2,3,4,6-tetrahydro-1H-azacyclo [4,3,2-cd]indol-3-yl)-4H-1,2,4-triazole-3-carboxamide] | 100 to 1000 nM |
| CNC(=O)c1cccnc1-n1cc2c3c(cccc31)N(C)C(=O)C(NC(=O)c1nnc(Cc3ccccc3)[nH]1)C2 (racemic) [T-56, (±)-2-(3-(5-benzyl-4H-1,2,4-triazole-3-carboxamide)-1-methyl-2-oxy-1,2,3,4-tetrahydro-6H-azacyclo [4,3,2-cd]indol-6-yl)-N-methylnicotinamide] | 10 to 100 nM |
| CN1C(=O)C(NC(=O)c2nnc(Cc3ccccc3)[nH]2)Cc2c[nH]c3ccc(F)c1c23 (racemic) [T-131, (±)-5-benzyl-N-(9-fluoro-1-methyl-2-oxo-2,3,4,6-tetrahydroazepincd [4,3,2-cd]indol-3-yl)-4H-1,2,4-triazole-3-carboxamide] | < 10 nM |
| CCS(=O)(=O)c1cccnc1-n1cc2c3c(cccc31)N(C)C(=O)C(NC(=O)c1nnc(Cc3ccccc3)[nH]1)C2 (racemic) [T-108, (±)-5-benzyl-N-(6-(3-(ethylsulfonyl)pyridin-2-yl)-1-methyl-2-oxo-2,3,4,6-tetrahydro-1H-aza [4,3,2-cd]indol-3-yl)-4H-1,2,4-triazole-3-carboxamide] | 10 to 100 nM |
| CN1C(=O)C(NC(=O)c2nnc(Cc3ccccc3)[nH]2)Cc2cn(-c3cnccc3CO)c3cccc1c23 (racemic) [T-48, (±)-5-benzyl-N-(6-(4-(hydroxymethyl)pyridin-3-yl)-1-methyl-2-oxo-2,3,4,6-tetrahydro-1H-azacyclo [4,3,2-cd]indol-3-yl)-4H-1,2,4-triazole-3-carboxamide] | < 10 nM |
| CN1C(=O)C(NC(=O)c2nnc(Cc3ccccc3)[nH]2)Cn2ccc3cc(Br)cc1c32 (racemic) [T-6, (±)-5-benzyl-N-(9-bromo-1-methyl-2-oxo-1,2,3,4-tetrahydro-[1,4]diazepino [3,2,1-hi]indol-3-yl)-4H-1,2,4-triazole-3-carboxamide] | 100 to 1000 nM |
| CN1C(=O)C(NC(=O)c2ncc(Cc3ccccc3)o2)Cc2cn(-c3ncccc3C(F)(F)F)c3cccc1c23 (racemic) [T-63, (±)-5-benzyl-N-(1-methyl-2-oxo-6-(3-(trifluoromethyl)pyridin-2-yl)-2,3,4,6-tetrahydro-1H-azacyclo [4,3,2-cd]indol-3-yl) oxazole-2-carboxamide] | < 10 nM |
| CN1C(=O)C(NC(=O)c2nnc(Cc3ccccc3)[nH]2)Cn2cc(C#N)c3cccc1c32 (racemic) [T-76, (±)-5-benzyl-N-(7-cyano-1-methyl-2-oxo-1,2,3,4-tetrahydro-[1,4]diazepino [3,2,1-hi]indol-3-yl)-4H-1,2,4-triazole-3-carboxamide] | 10 to 100 nM |
| CN1C(=O)C(NC(=O)c2nnc(Cc3ccccc3)[nH]2)Cn2cc(-c3ccnc(C(F)(F)F)c3)c3cccc1c32 (racemic) [T-77, (±)-5-benzyl-N-(1-methyl-2-oxo-7-(2-(trifluoromethyl)pyridin-4-yl)-1,2,3,4-tetrahydro-[1,4]diazepino [3,2,1-hi]indol-3-yl)-4H-1,2,4-triazole-3-carboxamide] | 100 to 1000 nM |
